Test results reported in patent publication US20060069132A1, “Azolecarboxamide herbicides” (priority 2004, published 2006).

Legend:
[1] = test system: wheat; test: Test B postemergence herbicide test; assay type: in vivo, Triticum aestivum; conditions: Postemergence, 500 g ai/ha; visual rating after 13 to 15 days, scale 0 (no effect) to 100 (complete control)
How it was run: (§1)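 Postemergence plants were sprayed with formulated test chemicals at 2 to 18 cm height (1- to 4-leaf stage); paddy species were grown to the 2-leaf stage. After 13 to 15 days in a greenhouse, injury was rated visually against untreated controls on a 0–100 scale (0 = no effect, 100 = complete control).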

[2] = test system: wild oat; test: Test B postemergence herbicide test; assay type: in vivo, Avena fatua; conditions: Postemergence, scale 0 (no effect) to 100 (complete control); for Oat, Wild plant response rating: 125 g ai/ha; for Plant response rating, Oat, Wild: 500 g ai/ha, visual rating after 13 to 15 days
How it was run: as §1

[3] = test system: pigweed; test: Test B pre-/postemergence herbicide test; assay type: in vivo, Amaranthus retroflexus; conditions: for Pigweed plant response rating: Preemergence, scale 0 to 100
How it was run: (§2)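 Flooded paddy rice and barnyardgrass were treated at the 2-leaf stage; upland plantings received compound either on sown seed or on 1- to 4-leaf seedlings. All were kept 13–15 days in a greenhouse and scored visually, 0–100, relative to untreated plants.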

[4] = test system: velvetleaf; test: Test B pre-/postemergence herbicide test; assay type: in vivo, Abutilon theophrasti; conditions: for Velvetleaf plant response rating: Preemergence, scale 0 to 100
How it was run: as §2

[5] = test system: giant foxtail; test: Test A pre-/postemergence herbicide test; assay type: in vivo, Setaria faberi
How it was run: (§3)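 Sandy loam soil given preemergence directed spray; plants at 2 to 10 cm, one- to two-leaf stage, sprayed to runoff postemergence, compounds in non-phytotoxic solvent with surfactant. Injury rated visually versus untreated controls after about ten greenhouse days, 0 (no effect) to 100 (complete control); dash means not tested.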

[6] = test system: large crabgrass; test: Test B pre-/postemergence herbicide test; assay type: in vivo, Digitaria sanguinalis; conditions: for Plant response rating, Crabgrass, Large: visual rating after 13 to 15 days
How it was run: as §2

[7] = test system: blackgrass; test: Test B postemergence herbicide test; assay type: in vivo, Alopecurus myosuroides; conditions: Postemergence, scale 0 (no effect) to 100 (complete control); for Blackgrass plant response rating: 125 g ai/ha; for Plant response rating, Blackgrass: 500 g ai/ha, visual rating after 13 to 15 days
How it was run: (§4)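 Read-out: visual comparison with controls, scored 0 to 100, where 100 means complete control and 0 no effect. Formulated chemicals were applied postemergence to plants 2–18 cm tall (1- to 4-leaf), or to flooded-paddy plants at the 2-leaf stage, then held 13 to 15 days under glass.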

[8] = test system: morningglory; test: Test B pre-/postemergence herbicide test; assay type: in vivo, Ipomoea coccinea
How it was run: (§5)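 Pre: seeds sown, then sprayed. Post: 1–4-leaf plants (2–18 cm) sprayed at the same time. Paddy: flooded, treated at 2-leaf stage. Formulation: non-phytotoxic solvent with surfactant. Greenhouse 13–15 days; visual 0–100 score relative to controls.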

[9] = test system: cocklebur; test: Test B pre-/postemergence herbicide test; assay type: in vivo, Xanthium strumarium; conditions: for Plant response rating, Cocklebur: visual rating after 13 to 15 days
How it was run: as §5

[10] = test system: rice; test: Test B flooded paddy test; assay type: in vivo, Oryza sativa; conditions: 1000 g ai/ha, visual rating, scale 0 to 100 (0 no effect, 100 complete control), 13 to 15 days
How it was run: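 After treating 2-leaf paddy plants or 2–18 cm postemergence plants (1 to 4 leaves) with formulated chemical, researchers kept them in a greenhouse for 13–15 days. Effects were judged visually versus controls: 0 indicates none, 100 total control.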

[11] = test system: corn; test: Test B pre-/postemergence herbicide test; assay type: in vivo, Zea mays
How it was run: as §2

[12] = test system: redroot pigweed; test: Test A pre-/postemergence herbicide test; assay type: in vivo, Amaranthus retroflexus
How it was run: as §3

[13] = test system: lambsquarters; test: Test B pre-/postemergence herbicide test; assay type: in vivo, Chenopodium album
How it was run: as §2

[14] = test system: Surinam grass; test: Test B pre-/postemergence herbicide test; assay type: in vivo, Urochloa decumbens; conditions: for Surinam Grass plant response rating: Preemergence, scale 0 to 100
How it was run: as §2

[15] = test system: barnyardgrass; test: Test B pre-/postemergence herbicide test; assay type: in vivo, Echinochloa crus-galli; conditions: for Plant response rating, Barnyardgrass: visual rating after 13 to 15 days
How it was run: as §5

[16] = test system: ducksalad; test: Test B flooded paddy test; assay type: in vivo, Heteranthera limosa; conditions: 1000 g ai/ha, visual rating, scale 0 to 100 (0 no effect, 100 complete control), 13 to 15 days
How it was run: as §4

[17] = test system: velvetleaf; test: Test A pre-/postemergence herbicide test; assay type: in vivo, Abutilon theophrasti
How it was run: as §3

[18] = test system: small flower umbrella sedge; test: Test B flooded paddy test; assay type: in vivo, Cyperus difformis; conditions: 1000 g ai/ha, visual rating, scale 0 to 100 (0 no effect, 100 complete control), 13 to 15 days
How it was run: as §4

[19] = test system: large crabgrass; test: Test A pre-/postemergence herbicide test; assay type: in vivo, Digitaria sanguinalis
How it was run: as §3

[20] = test system: giant foxtail; test: Test B pre-/postemergence herbicide test; assay type: in vivo, Setaria faberi
How it was run: as §2

[21] = test system: morningglory; test: Test A pre-/postemergence herbicide test; assay type: in vivo, Ipomoea spp.
How it was run: as §3

[22] = test system: barnyardgrass; test: Test A pre-/postemergence herbicide test; assay type: in vivo, Echinochloa crus-galli
How it was run: as §3

[23] = test system: barnyardgrass; test: Test B flooded paddy test; assay type: in vivo, Echinochloa crus-galli; conditions: 1000 g ai/ha, visual rating, scale 0 to 100 (0 no effect, 100 complete control), 13 to 15 days
How it was run: as §4

[24] = Postemergence, 500 g ai/ha, visual rating after 13 to 15 days, scale 0 (no effect) to 100 (complete control)
[25] = preemergence, 125 g ai/ha, 0 to 100 scale, 0 is no effect, 100 is complete control
[26] = Postemergence, 500 g ai/ha, 0 to 100 scale, 0 no effect, 100 complete control
[27] = Postemergence, 2000 g ai/ha, 0 to 100 scale, 0 no effect, 100 complete control
[28] = Preemergence, 500 g ai/ha, visual rating, 0 to 100 scale (0 no effect, 100 complete control)
[29] = Preemergence, 2000 g ai/ha, 0 to 100 scale, 0 no effect, 100 complete control
[30] = Postemergence, 125 g ai/ha, scale 0 (no effect) to 100 (complete control)
[31] = Postemergence, 500 g ai/ha, scale 0 (no effect) to 100 (complete control)
[32] = Preemergence, 500 g ai/ha, scale 0 to 100
[33] = Postemergence, 250 g ai/ha, 0 to 100 scale, 0 no effect, 100 complete control
[34] = Postemergence, 1000 g ai/ha, 0 to 100 scale, 0 no effect, 100 complete control
[35] = Preemergence, 1000 g ai/ha, visual rating, 0 to 100 scale (0 no effect, 100 complete control)
[36] = preemergence, 250 g ai/ha, visual injury, 0 to 100 scale (0 no effect, 100 complete control)

SMILES: CCCCn1nc(C(C)(C)C)cc1C(=O)Nc1cccc(C(=O)N(CC)CC)c1 [Compound 40]
- Plant response rating, Wheat [1]: 30
- Oat, Wild plant response rating [2]: 0
- Plant response rating, Oat, Wild [2]: 10
- Plant response rating, Pigweed [3, 24]: 60
- Pigweed plant response rating ([3]; 500 g ai/ha): 60
- Plant response rating, Pigweed [3, 25]: 30
- Plant response rating, Velvetleaf [4, 24]: 20
- Velvetleaf plant response rating ([4]; 500 g ai/ha): 10
- Plant response rating, Velvetleaf [4, 25]: 0
- Plant response rating, Foxtail, Giant [5, 26]: 0
- Plant response rating, Foxtail, Giant [5, 27]: 0
- Foxtail, Giant plant response rating [5, 28]: 0
- Foxtail, Giant plant response rating [5, 29]: 5
- Crabgrass, Large plant response rating [6, 30]: 10
- Plant response rating, Crabgrass, Large [6, 31]: 20
- Crabgrass, Large plant response rating [6, 32]: 70
- Blackgrass plant response rating [7]: 10
- Plant response rating, Blackgrass [7]: 20
- Morningglory plant response rating [8, 32]: 10
- Cocklebur plant response rating [9, 30]: 10
- Plant response rating, Cocklebur [9, 31]: 50
- Cocklebur plant response rating [9, 32]: 0
- Rice plant response rating [10]: 0
- Corn plant response rating [11, 32]: 0
- Plant response rating, Pigweed [12, 26]: 0
- Plant response rating, Pigweed [12, 27]: 0
- Pigweed plant response rating [12, 28]: 0
- Pigweed plant response rating [12, 29]: 15
- Lambsquarters plant response rating [13, 30]: 40
- Plant response rating, Lambsquarters [13, 24]: 70
- Lambsquarters plant response rating [13, 32]: 80
- Plant response rating, Lambsquarters [13, 25]: 40
- Plant response rating, Surinam Grass [14, 24]: 20
- Surinam Grass plant response rating ([14]; 500 g ai/ha): 10
- Plant response rating, Surinam Grass [14, 25]: 0
- Barnyardgrass plant response rating [15, 30]: 10
- Plant response rating, Barnyardgrass [15, 31]: 10
- Barnyardgrass plant response rating [15, 32]: 40
- Ducksalad plant response rating [16]: 0
- Plant response rating, Velvetleaf [17, 26]: 0
- Plant response rating, Velvetleaf [17, 27]: 0
- Velvetleaf plant response rating [17, 28]: 5
- Velvetleaf plant response rating [17, 29]: 15
- Sedge, Umbrella plant response rating [18]: 30
- Plant response rating, Crabgrass, Large [19, 26]: 15
- Plant response rating, Crabgrass, Large [19, 27]: 0
- Crabgrass, Large plant response rating [19, 28]: 5
- Crabgrass, Large plant response rating [19, 29]: 15
- Foxtail, Giant plant response rating [20, 30]: 0
- Plant response rating, Foxtail, Giant [20, 24]: 20
- Foxtail, Giant plant response rating [20, 32]: 10
- Plant response rating, Foxtail, Giant [20, 25]: 0
- Plant response rating, Morningglory [21, 26]: 0
- Plant response rating, Morningglory [21, 27]: 0
- Morningglory plant response rating [21, 28]: 5
- Morningglory plant response rating [21, 29]: 10
- Plant response rating, Barnyardgrass [22, 26]: 0
- Plant response rating, Barnyardgrass [22, 27]: 0
- Barnyardgrass plant response rating [22, 28]: 0
- Barnyardgrass plant response rating [22, 29]: 15
- Barnyardgrass plant response rating [23]: 0

SMILES: CCN(CC)C(=O)c1cccc(NC(=O)c2cc(C(C)(C)C)nn2CC(F)(F)F)c1 [Compound 32]
- Plant response rating, Wheat [1]: 10
- Oat, Wild plant response rating [2]: 10
- Plant response rating, Oat, Wild [2]: 20
- Plant response rating, Pigweed [3, 24]: 50
- Pigweed plant response rating ([3]; 500 g ai/ha): 70
- Plant response rating, Pigweed [3, 25]: 0
- Plant response rating, Velvetleaf [4, 24]: 30
- Velvetleaf plant response rating ([4]; 500 g ai/ha): 70
- Plant response rating, Velvetleaf [4, 25]: 0
- Foxtail, Giant plant response rating [5, 33]: 0
- Plant response rating, Foxtail, Giant [5, 34]: 0
- Foxtail, Giant plant response rating [5, 35]: 0
- Foxtail, Giant plant response rating [5, 36]: 0
- Crabgrass, Large plant response rating [6, 30]: 0
- Plant response rating, Crabgrass, Large [6, 31]: 10
- Crabgrass, Large plant response rating [6, 32]: 60
- Blackgrass plant response rating [7]: 0
- Plant response rating, Blackgrass [7]: 0
- Morningglory plant response rating [8, 30]: 0
- Plant response rating, Morningglory [8, 24]: 0
- Morningglory plant response rating [8, 32]: 60
- Plant response rating, Morningglory [8, 25]: 50
- Cocklebur plant response rating [9, 30]: 10
- Plant response rating, Cocklebur [9, 31]: 20
- Cocklebur plant response rating [9, 32]: 0
- Rice plant response rating [10]: 0
- Corn plant response rating [11, 30]: 10
- Plant response rating, Corn [11, 24]: 10
- Corn plant response rating [11, 32]: 0
- Pigweed plant response rating [12, 33]: 0
- Plant response rating, Pigweed [12, 34]: 0
- Pigweed plant response rating [12, 35]: 0
- Pigweed plant response rating [12, 36]: 0
- Lambsquarters plant response rating [13, 30]: 70
- Plant response rating, Lambsquarters [13, 24]: 90
- Lambsquarters plant response rating [13, 32]: 100
- Plant response rating, Lambsquarters [13, 25]: 100
- Plant response rating, Surinam Grass [14, 24]: 10
- Surinam Grass plant response rating ([14]; 500 g ai/ha): 30
- Plant response rating, Surinam Grass [14, 25]: 0
- Barnyardgrass plant response rating [15, 30]: 0
- Plant response rating, Barnyardgrass [15, 31]: 10
- Barnyardgrass plant response rating [15, 32]: 60
- Ducksalad plant response rating [16]: 0
- Velvetleaf plant response rating [17, 33]: 0
- Plant response rating, Velvetleaf [17, 34]: 0
- Velvetleaf plant response rating [17, 35]: 0
- Velvetleaf plant response rating [17, 36]: 0
- Sedge, Umbrella plant response rating [18]: 20
- Crabgrass, Large plant response rating [19, 33]: 0
- Plant response rating, Crabgrass, Large [19, 34]: 0
- Crabgrass, Large plant response rating [19, 35]: 0
- Crabgrass, Large plant response rating [19, 36]: 0
- Foxtail, Giant plant response rating [20, 30]: 0
- Plant response rating, Foxtail, Giant [20, 24]: 10
- Foxtail, Giant plant response rating [20, 32]: 10
- Plant response rating, Foxtail, Giant [20, 25]: 0
- Morningglory plant response rating [21, 33]: 0
- Plant response rating, Morningglory [21, 34]: 0
- Morningglory plant response rating [21, 35]: 0
- Morningglory plant response rating [21, 36]: 0
- Barnyardgrass plant response rating [22, 33]: 0
- Plant response rating, Barnyardgrass [22, 34]: 0
- Barnyardgrass plant response rating [22, 35]: 0
- Barnyardgrass plant response rating [22, 36]: 0
- Barnyardgrass plant response rating [23]: 0
